According to patent US9802927B2, “Oxadiazine compounds and methods of use thereof” (Denali Therapeutics, Inc., priority 2015, dated 2017):

System: Aβ42
Test: In vitro cell screening assay in H4 cells expressing human APP751: Aβ42 by sandwich ELISA
Type: cell-based
Conditions: Homo sapiens, compounds 0.003-10 μM, incubated overnight (16-18 h), sandwich ELISA of supernatant
Method in brief: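 Secreted Aβ42 measured by sandwich ELISA, C-terminal-specific capture and 4G8-HRP detection, TMB read at 450 nm, from supernatants of APP751-expressing H4 cells exposed overnight (16-18 h) to 0.003-10 μM compound in Pro293 medium, 0.33% DMSO. Data scaled between DMSO and DAPT controls; EC50 from variable-slope nonlinear regression.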

EC50	Structure (SMILES)
1730 nM	COc1nc(C2=NOCC(c3cscn3)N2)ccc1-n1cnc(C)c1 (single isomer, unassigned; (+)) [Example 156A, (+)-3-(6-methoxy-5-(4-methyl-1H-imidazol-1-yl)pyridin-2-yl)-5-(thiazol-4-yl)-5,6-dihydro-4H-1,2,4-oxadiazine]
> 3000 nM	COc1nc(C2=NOCC(c3ccccn3)N2)ccc1-n1cnc(C)c1 (single isomer, unassigned; (+)) [Example 168A, (+)-3-(6-methoxy-5-(4-methyl-1H-imidazol-1-yl)pyridin-2-yl)-5-(pyridin-2-yl)-5,6-dihydro-4H-1,2,4-oxadiazine]
> 3000 nM	COc1nc(C2=NOCC(C3CCS(=O)(=O)CC3)N2)ccc1-n1cnc(C)c1 (single isomer, unassigned; (+)) [Example 177A, (+)-4-(3-(6-methoxy-5-(4-methyl-1H-imidazol-1-yl)pyridin-2-yl)-5,6-dihydro-4H-1,2,4-oxadiazin-5-yl) tetrahydro-2H-thiopyran 1,1-dioxide]

Same assay, conditions: compounds 0.003-10 μM, incubated overnight (16-18 h), sandwich ELISA of supernatant

EC50	Structure (SMILES)
450 nM	COc1nc(C2=NOCC(c3ccc(C#N)cc3)N2)ccc1-n1cnc(C)c1 (single isomer, unassigned; (+)) [Example 151B, (+)-4-(3-(6-methoxy-5-(4-methyl-1H-imidazol-1-yl)pyridin-2-yl)-5,6-dihydro-4H-1,2,4-oxadiazin-5-yl) benzonitrile]
930 nM	COc1nc(C2=NOCC(CC(C)C)N2)ccc1-n1cnc(C)c1 (single isomer, unassigned; (+)) [Example 154A, (+)-5-isobutyl-3-(6-methoxy-5-(4-methyl-1H-imidazol-1-yl)pyridin-2-yl)-5,6-dihydro-4H-1,2,4-oxadiazine]
> 3000 nM	COc1nc(C2=NOCC(c3oc(C)nc3C)N2)ccc1-n1cnc(C)c1 (single isomer, unassigned; (+)) [Example 161B, (+)-5-(2,4-dimethyloxazol-5-yl)-3-(6-methoxy-5-(4-methyl-1H-imidazol-1-yl)pyridin-2-yl)-5,6-dihydro-4H-1,2,4-oxadiazine]
> 3000 nM	COc1nc(C2=NOCC(C3CCC3)N2)ccc1-n1cnc(C)c1 (single isomer, unassigned; (+)) [Example 163A, (+)-5-cyclobutyl-3-(6-methoxy-5-(4-methyl-1H-imidazol-1-yl)pyridin-2-yl)-5,6-dihydro-4H-1,2,4-oxadiazine]
> 3000 nM	COc1nc(C2=NOCC(c3cnn(C)c3)N2)ccc1-n1cnc(C)c1 (single isomer, unassigned; (+)) [Example 166B, (+)-3-(6-methoxy-5-(4-methyl-1H-imidazol-1-yl)pyridin-2-yl)-5-(1-methyl-1H-pyrazol-4-yl)-5,6-dihydro-4H-1,2,4-oxadiazine]
918 nM	COc1nc(C2=NOCC(C3CCCC3)N2)ccc1-n1cnc(C)c1 (single isomer, unassigned; (+)) [Example 171A, (+)-5-cyclopentyl-3-(6-methoxy-5-(4-methyl-1H-imidazol-1-yl)pyridin-2-yl)-5,6-dihydro-4H-1,2,4-oxadiazine]
281 nM	COc1nc(C2=NOCC(C3CC(F)(F)C3)N2)ccc1-n1cnc(C)c1 (single isomer, unassigned; (+)) [Example 180B, (+)-5-(3,3-difluorocyclobutyl)-3-(6-methoxy-5-(4-methyl-1H-imidazol-1-yl)pyridin-2-yl)-5,6-dihydro-4H-1,2,4-oxadiazine]
260 nM	COc1nc(C2=NOCC(c3ccc4ncsc4c3)N2)ccc1-n1cnc(C)c1 (single isomer, unassigned; (+)) [Example 183B, (+)-5-(benzo [d]thiazol-6-yl)-3-(6-methoxy-5-(4-methyl-1H-imidazol-1-yl)pyridin-2-yl)-5,6-dihydro-4H-1,2,4-oxadiazine]
38.4 nM	COc1nc(C2=NOCC(c3cc4ccccc4o3)N2)ccc1-n1cnc(C)c1 (single isomer, unassigned; (+)) [Example 186B, (+)-5-(benzofuran-2-yl)-3-(6-methoxy-5-(4-methyl-1H-imidazol-1-yl)pyridin-2-yl)-5,6-dihydro-4H-1,2,4-oxadiazine]
24 nM	COc1nc(C2=NOCC(c3cn(C)c4ccccc34)N2)ccc1-n1cnc(C)c1 (single isomer, unassigned; (+)) [Example 189A, (+)-3-(6-methoxy-5-(4-methyl-1H-imidazol-1-yl)pyridin-2-yl)-5-(1-methyl-1H-indol-3-yl)-5,6-dihydro-4H-1,2,4-oxadiazine]
19.5 nM	COc1nc(C2=NOCC(c3cn(C)c4ccc(F)cc34)N2)ccc1-n1cnc(C)c1 (single isomer, unassigned; (+)) [Example 190B, (+)-5-(5-fluoro-1-methyl-1H-indol-3-yl)-3-(6-methoxy-5-(4-methyl-1H-imidazol-1-yl)pyridin-2-yl)-5,6-dihydro-4H-1,2,4-oxadiazine]
6.9 nM	COc1nc(C2=NOCC(c3cn(C)c4cccc(F)c34)N2)ccc1-n1cnc(C)c1 (single isomer, unassigned; (+)) [Example 191A, (+)-5-(4-fluoro-1-methyl-1H-indol-3-yl)-3-(6-methoxy-5-(4-methyl-1H-imidazol-1-yl)pyridin-2-yl)-5,6-dihydro-4H-1,2,4-oxadiazine]
8.5 nM	COc1nc(C2=NOCC(c3cn(C)c4cc(F)ccc34)N2)ccc1-n1cnc(C)c1 (single isomer, unassigned; (+)) [Example 192B, (+)-5-(6-fluoro-1-methyl-1H-indol-3-yl)-3-(6-methoxy-5-(4-methyl-1H-imidazol-1-yl)pyridin-2-yl)-5,6-dihydro-4H-1,2,4-oxadiazine]
4.9 nM	COc1nc(C2=NOCC(c3cn(C)c4ccc(Cl)cc34)N2)ccc1-n1cnc(C)c1 (single isomer, unassigned; (+)) [Example 193B, (+)-5-(5-chloro-1-methyl-1H-indol-3-yl)-3-(6-methoxy-5-(4-methyl-1H-imidazol-1-yl)pyridin-2-yl)-5,6-dihydro-4H-1,2,4-oxadiazine]
7.7 nM	COc1nc(C2=NOCC(c3cn(C)c4cc(Cl)ccc34)N2)ccc1-n1cnc(C)c1 (single isomer, unassigned; (+)) [Example 194A, (+)-5-(6-chloro-1-methyl-1H-indol-3-yl)-3-(6-methoxy-5-(4-methyl-1H-imidazol-1-yl)pyridin-2-yl)-5,6-dihydro-4H-1,2,4-oxadiazine]
163 nM	COc1nc(C2=NOCC(c3cn(C)c4ncccc34)N2)ccc1-n1cnc(C)c1 (single isomer, unassigned; (+)) [Example 195B, (+)-3-(6-methoxy-5-(4-methyl-1H-imidazol-1-yl)pyridin-2-yl)-5-(1-methyl-1H-pyrrolo [2,3-b]pyridin-3-yl)-5,6-dihydro-4H-1,2,4-oxadiazine]
22.5 nM	COc1nc(C2=NOCC(c3cn(C(C)C)c4cccc(F)c34)N2)ccc1-n1cnc(C)c1 (single isomer, unassigned; (+)) [Example 196A, (+)-5-(4-fluoro-1-isopropyl-1H-indol-3-yl)-3-(6-methoxy-5-(4-methyl-1H-imidazol-1-yl)pyridin-2-yl)-5,6-dihydro-4H-1,2,4-oxadiazine]
3.4 nM	COc1nc(C2=NOCC(c3cn(C)c4cc(C(F)(F)F)ccc34)N2)ccc1-n1cnc(C)c1 (single isomer, unassigned; (+)) [Example 197A, (+)-3-(6-methoxy-5-(4-methyl-1H-imidazol-1-yl)pyridin-2-yl)-5-(1-methyl-6-(trifluoromethyl)-1H-indol-3-yl)-5,6-dihydro-4H-1,2,4-oxadiazine]
154 nM	COc1nc(C2=NOCC(c3cn(C)c4ccccc34)N2C)ccc1-n1cnc(C)c1 (single isomer, unassigned; (+)) [Example 200A, (+)-3-(6-methoxy-5-(4-methyl-1H-imidazol-1-yl)pyridin-2-yl)-4-methyl-5-(1-methyl-1H-indol-3-yl)-5,6-dihydro-4H-1,2,4-oxadiazine]
256 nM	COc1nc(C2=NOCC(c3nc4ccccc4o3)N2)ccc1-n1cnc(C)c1 (single isomer, unassigned; (+)) [Example 203B, (+)-2-(3-(6-methoxy-5-(4-methyl-1H-imidazol-1-yl)pyridin-2-yl)-5,6-dihydro-4H-1,2,4-oxadiazin-5-yl)benzo[d]oxazole]
27 nM	COc1nc(C2=NOCC(c3cc4ccccc4n3C)N2)ccc1-n1cnc(C)c1 (single isomer, unassigned; (+)) [Example 205B, (+)-3-(6-methoxy-5-(4-methyl-1H-imidazol-1-yl)pyridin-2-yl)-5-(1-methyl-1H-indol-2-yl)-5,6-dihydro-4H-1,2,4-oxadiazine]
5 nM	COc1nc(C2=NOCC(c3cn(C)c4ncc(C(F)(F)F)cc34)N2)ccc1-n1cnc(C)c1 (single isomer, unassigned; (+)) [Example 206B, (+)-3-(6-methoxy-5-(4-methyl-1H-imidazol-1-yl)pyridin-2-yl)-5-(1-methyl-5-(trifluoromethyl)-1H-pyrrolo [2,3-b]pyridin-3-yl)-5,6-dihydro-4H-1,2,4-oxadiazine]
74 nM	COc1nc(C2=NOCC(c3nc4ccccc4s3)N2)ccc1-n1cnc(C)c1 (single isomer, unassigned; (+)) [Example 208B, (+)-5-(benzo [d]thiazol-2-yl)-3-(6-methoxy-5-(4-methyl-1H-imidazol-1-yl)pyridin-2-yl)-5,6-dihydro-4H-1,2,4-oxadiazine]
789 nM	COc1cc(C2=NOCC(c3nc4cccc(C)c4o3)N2C)ccc1-n1cnc(C)c1 (single isomer, unassigned; (+)) [Example 212A, (+)-2-(3-(3-methoxy-4-(4-methyl-1H-imidazol-1-yl)phenyl)-4-methyl-5,6-dihydro-4H-1,2,4-oxadiazin-5-yl)-7-methylbenzo[d]oxazole]
